Data reported in publication PMC10654507, “A cleavable chimeric peptide with targeting and killing domains enhances LPS neutralization and antibacterial properties against multi-drug resistant E. coli” (Communications Biology, 2023).
In brackets after ≈: the same amount, converted by molar mass. Residues, ends and D or L forms follow the SMILES beside them.

Tests used:
MDR E. coli CVCC195 [1] = test: Infiltrated inflammatory cells in lung sections, E. coli-challenged mice; type: in vivo, mouse; conditions: Fig. 6c source data, peptide + E. coli, mean
Description: Fig. 6 Effects of cleavable chimeric peptide R7 on lung injury in mice. […] Lung injury was analyzed histologically at 12 h or 24 h. a Histopathological images of lung sections after staining with hematoxylin and eosin (H&E). Images are presented at a magnification of 100×. b Pathological analysis of lung. Lung injury involves in inflammation (such as peribronchial, perivascular, intrabronchial, and pulmonary interstitial one), bronchial exudate, and alveolar septal thickening, respectively. The specific degree of lung injury of each mouse is assessed by Score 0 (asymptomatic), Score 1 (mild), Score 2 (moderate), and Score 3 (severe), respectively. c The number of counted infiltrated inflammatory cells within processed lung sections from a. Data represent the mean ± SD of three independent experiments. Different lower-case letters indicate a significant difference between the two groups (p < 0.05).
Lung tissues were taken at 12 h and 24 h, respectively, washed with PBS, and fixed in 4% paraformaldehyde overnight. After dehydration in different concentrations of ethanol (including 75%, 85%, 90%, and 95%, respectively), the tissues were embedded in paraffin, sliced, and stained with hematoxylin. Observation was performed under a light microscope. The mice only injected with E. coli, LPS or PBS was regard as the negative or blank control.

MDR E. coli CVCC195 [2] = test: Serum cytokines (TNF-α, IL-6, IL-1β, IL-10; ELISA) in E. coli-challenged mice; type: in vivo, mouse; parameters: unit not given beside the values; conditions: Fig. 5c-f source data, peptide + E. coli challenged mice, mean
Description: After E. coli or LPS challenge, the mice were sacrificed at 12 h and 24 h, respectively, and the sera were collected to detect inflammatory cytokines (such as tumor necrosis factor-α (TNF-α), interleukin-6 (IL-6), interleukin-1β (IL-1β), and interleukin-10 (IL-10)) using the enzyme linked immunosorbent assay (ELISA) kits. To evaluate the specific activity of intestinal alkaline phosphatase (IAP), a 2 cm segment of duodenum was rapidly intercepted from the mice and homogenized; the IAP levels in the supernatant were detected by ELISA. In addition, the lungs were collected from the mice infected by E. coli after 12 and 24 h, respectively and were homogenized in sterile PBS for the bacterial counts assay.

[3] = test system: p65, p-p65, ERK1/2, p-ERK1/2 and IκBα; test: Western blotting of NF-κB and MAPK pathway proteins in lung tissues of LPS-challenged mice; type: in vivo, mouse; conditions: for IκBα/β-actin ratio / p-ERK1/2/ERK1/2 ratio / p-p65/p65 ratio: Supplementary Fig. 5b-d source data, lung tissues, peptide + LPS, mean; for ERK1/2 phosphorylation: lung tissues of 24 h, western blot
Description: Additionally, the lung tissues of 24 h were homogenized and suspended in […] buffer, and the protein levels of supernatants were quantified using a Bradford protein assay kit. A total of 30 μg proteins were analyzed on a sodium dodecyl sulfate-polyacrylamide gel electrophoresis gel and were immunoblotted onto PVDF membranes, followed by an incubation with the primary antibodies of p65, p-p65, extracellular signal-regulated kinase (ERK)1/2, p-ERK1/2 and IκBα overnight at 4 °C. After washing, the blots were incubated with the peroxidase conjugated goat-rabbit or goat-mouse antibodies. Relative protein expression levels were quantified by a densitometric measurement of chemiluminescence (ECL) reaction band. β-actin was used as the internal reference. […]
pathways in lung tissues.
LPS. a The protein levels of p65, p-p65, ERK1/2, p-ERK1/2, and IκBα in lungs were analyzed by western blotting. b Densitometric analysis of p-ERK1/2/ERK1/2 ratio. c. Densitometric analysis of p-p65/p65 ratio. d Densitometric analysis of IκBα/β-actin ratio. All data were analyzed with one-way ANOVA, and data are means ± SD (n = 3). p-values< 0.05 were considered significant. **, p < 0.01, […]
(1 picture or pasted object on this page, not shown here)

Escherichia coli CVCC195 = type: cell-based; conditions: repeated three times; for MBC: lowest concentration giving 99.9% reduction of the inoculum; for MIC: microtiter broth dilution, 10^5 CFU/mL, 37 °C, 16 ~ 18 h
Description: (§1) The minimum inhibitory concentration (MIC) and minimum bactericidal concentration (MBC) of peptides were determined by the microtiter broth dilution method according to Clinical and Laboratory Standards Institute (CLSI) guidelines. […] PBS was used as the negative control. […] The MBC value was calculated as the lowest concentration of peptides resulting in a 99.9% reduction of the original inoculum. All experiments were repeated three times.

[4] = test system: Staphylococcus aureus ATCC43300; type: cell-based; conditions: repeated three times; for MBC: lowest concentration giving 99.9% reduction of the inoculum; for MIC: microtiter broth dilution, 10^5 CFU/mL, 37 °C, 16 ~ 18 h
Description: as §1

in vitro = in vitro ADME; conditions: for degradation in human serum: RP-HPLC (Supplementary Fig. 2)
MDR E. coli CVCC195 [5] = test: Efficacy of different doses of R7 in mice challenged with MDR E. coli (survival); type: in vivo, mouse; parameters: key: 1 represents a mouse death; 0 represents no death; conditions: Supplementary Fig. 4 source data, MDR E. coli challenge
Description: Supplementary Figure 4. Eﬀicacy of different doses of cleavable chimeric peptide R7 in the mice
challenged with MDR E. coli. Mice were intraperitoneally injected with 3.5, 7 or 14 μmol/kg R7 at 0
h (five mice/group), followed by injection with MDR E. coli CVCC195 (0.5×10^9 CFU/mouse) at 6 h.
PBS was used as control. Survival was recorded for 7 d.

[6] = Supplementary Fig. 2b source data, human serum, RP-HPLC, mean, read-out: remaining rate in human serum

| Structure (SMILES) | number of counted infiltrated inflammatory cells (MDR E. coli CVCC195 [1]; 12 h) | number of counted infiltrated inflammatory cells (MDR E. coli CVCC195 [1]; 24 h) | TNFα (MDR E. coli CVCC195 [2]; 12 h) | TNFα (MDR E. coli CVCC195 [2]; 24 h) | IκBα/β-actin ratio [3] | p-ERK1/2/ERK1/2 ratio [3] | p-p65/p65 ratio [3] | ERK1/2 phosphorylation [3] | MBC (Escherichia coli CVCC195) [µM] | MIC (Escherichia coli CVCC195) [µM] | MBC [4] [µM] | MIC [4] [µM] | degradation in human serum (in vitro) | remaining at 0.5 h, 0.5 mM (in vitro; [6]) [%] | remaining at 1 h, 0.5 mM (in vitro; [6]) [%] | remaining at 2 h, 0.5 mM (in vitro; [6]) [%] | remaining at 4 h, 0.5 mM (in vitro; [6]) [%] | further results |
| --- | --- | --- | --- | --- | --- | --- | --- | --- | --- | --- | --- | --- | --- | --- | --- | --- | --- | --- |
| CSCC[C@H](NC(=O)[C@H](CCCNC(=N)N)NC(=O)[C@H](Cc1c[nH]c2ccccc12)NC(=O)[C@H](C)NC(=O)[C@H](Cc1c[nH]c2ccccc12)NC(=O)[C@H](CCCNC(=N)N)NC(=O)[C@H](Cc1c[nH]c2ccccc12)NC(=O)[C@H](C)NC(=O)[C@H](CCCCN)NC(=O)[C@@H](N)Cc1ccccc1)C(=O)N[C@@H](CCCCN)C(=O)N[C@@H](CCCCN)C(=O)N[C@@H](CC(C)C)C(=O)N[C@@H](C)C(=O)N[C@@H](C)C(=O)N1CCC[C@H]1C(=O)N[C@@H](CO)C(=O)O [L7] (H-FKAWRWAWRMKKLAAPS-OH) | 32.847 | 26.4133 | 75.496 | 66.872 | 1.143 | 1.133 | 1.216 | not markedly attenuated | 4.53 (≈ 9.67 µg/mL) | 2.26 (≈ 4.82 µg/mL) | 18.1 (≈ 38.6 µg/mL) | 18.1 (≈ 38.6 µg/mL) | almost identical to those in mouse serum | 86.9 | 51.4 | 32 | 4.71 | remaining at 8 h, 0.5 mM (in vitro; Supplementary Fig. 2b source data, human serum, 8 h, RP-HPLC, mean, read-out: remaining rate in human serum): 0.839% |
| CSCC[C@H](NC(=O)[C@H](CCCNC(=N)N)NC(=O)[C@H](Cc1c[nH]c2ccccc12)NC(=O)[C@H](C)NC(=O)[C@H](Cc1c[nH]c2ccccc12)NC(=O)[C@H](CCCNC(=N)N)NC(=O)[C@H](Cc1c[nH]c2ccccc12)NC(=O)[C@H](C)NC(=O)[C@H](CCCCN)NC(=O)[C@H](Cc1ccccc1)NC(=O)[C@H](CCCNC(=N)N)NC(=O)[C@H](CCCNC(=N)N)NC(=O)[C@H](CCCCN)NC(=O)[C@H](CCCNC(=N)N)NC(=O)[C@H](CCCCN)NC(=O)[C@H](Cc1ccccc1)NC(=O)[C@H](Cc1ccccc1)NC(=O)[C@H](CO)NC(=O)[C@H](C)NC(=O)[C@H](CCCNC(=N)N)NC(=O)[C@@H](NC(=O)[C@H](CCCCN)NC(=O)[C@H](Cc1c[nH]c2ccccc12)NC(=O)[C@H](CCCNC(=N)N)NC(=O)CNC(=O)[C@H](CCC(N)=O)NC(=O)[C@@H](NC(=O)[C@@H](N)CCCNC(=N)N)C(C)C)C(C)C)C(=O)N[C@@H](CCCCN)C(=O)N[C@@H](CCCCN)C(=O)N[C@@H](CC(C)C)C(=O)N[C@@H](C)C(=O)N[C@@H](C)C(=O)N1CCC[C@H]1C(=O)N[C@@H](CO)C(=O)O [R7] (H-RVQGRWKVRASFFKRKRRFKAWRWAWRMKKLAAPS-OH) | 14.3787 | 11.7743 | 51.956 | 49.098 | 1.322 | 1.134 | 0.775 | not markedly attenuated | 1.13 (≈ 5.06 µg/mL) | 1.13 (≈ 5.06 µg/mL) | 2.26 (≈ 10.1 µg/mL) | 2.26 (≈ 10.1 µg/mL) | almost identical to those in mouse serum | 58.6 | 51.9 | 45.6 | 23 | efficacy of different doses, survival, event (MDR E. coli CVCC195 [5]; 3.5 μmol/kg R7, day 1, one cell per mouse): 1; efficacy of different doses, survival, event (MDR E. coli CVCC195 [5]; 3.5 μmol/kg R7, day 7): 0; efficacy of different doses, survival, event (MDR E. coli CVCC195 [5]; 7 μmol/kg R7, day 1): 0; efficacy of different doses, survival, event (MDR E. coli CVCC195 [5]; 7 μmol/kg R7, day 2): 0; efficacy of different doses, survival, event (MDR E. coli CVCC195 [5]; 7 μmol/kg R7, day 3): 0; efficacy of different doses, survival, event (MDR E. coli CVCC195 [5]; 7 μmol/kg R7, day 4): 0; efficacy of different doses, survival, event (MDR E. coli CVCC195 [5]; 7 μmol/kg R7, day 7): 0; efficacy of different doses, survival, event (MDR E. coli CVCC195 [5]; 14 μmol/kg R7, day 1): 0; efficacy of different doses, survival, event (MDR E. coli CVCC195 [5]; 14 μmol/kg R7, day 2): 0; efficacy of different doses, survival, event (MDR E. coli CVCC195 [5]; 14 μmol/kg R7, day 3): 0; efficacy of different doses, survival, event (MDR E. coli CVCC195 [5]; 14 μmol/kg R7, day 5): 0; efficacy of different doses, survival, event (MDR E. coli CVCC195 [5]; 14 μmol/kg R7, day 7): 0 |
